Measurements from patent US5888475A, “Labeled cocaine analogs” (Emory University, priority 1997, dated 1999).
Read-outs that look alike come from different tables or passages of the source.

How the values were obtained:
[1] = In vivo tissue distribution of radioactivity after intravenous administration; design: species or system Sprague Dawley rats; settings: rat, i.v.; for tissue uptake at 2 min / tissue uptake at 0.5 h / tissue uptake at 1 h / tissue uptake at 2 h: iv
Protocol: (§1) In vivo distribution of a compound of the invention, [^18 F]-2β-carbo-2'-fluoroisopropoxy-3β-(4-iodophenyl)tropane (FIPIT) 8 (X=4-iodophenyl; Y=1'fluoro-isopropoxy) was measured, as well as brain PET imaging to determine suitability of the compound as a label. Also, in vitro binding studies were conducted, measuring the ability of FIPIT to displace [^3 H]WIN 35,428 (III) in a rat striatal homogenate preparation. These studies provided a calculated binding constant for FIPIT 8 with dopamine transporter of 1.13 nM. […] Region of interest measurements determined striatal to cerebellum ratios to be 3.0 at 190 min post administration. In the in vivo distribution studies, the distribution of radioactivity was expressed as percent dose per gram in tissues of unfasted male Sprague Dawley rats at 2 min, 30 min, 60 min and 120 min after intravenous administration of [^18 F] FIPIT 8. The results are shown in Table I. The initial level of accumulation of radioactivity in the striatum, a region rich in dopamine transporters, after injection of [^18 F] FIPIT 8 was high, 0.84% of injected dose/gram at 2 min, and decreased slowly to 0.50% of injected dose/gram at 120 min. […] However, the amount of radioactivity in the cerebellum and cortex at 120 min decreased to only 0.14% dose/gram and 0.26% dose/gram respectively resulting in a striatum to cerebellum ratio of 3.71 and a striatum to cortex ratio of 2.0.

[2] = Brain PET imaging with [18F]-FIPIT in a rhesus monkey; format: in vivo
Protocol: as §1

dopamine transporter = biological target: T1, dopamine transporter (Rattus norvegicus, UniProt P23977); experiment: In vitro binding: displacement of [3H]WIN 35,428 in rat striatal homogenate; settings: displacement of [3H]WIN 35,428, rat striatal homogenate; read-out: calculated binding constant with dopamine transporter
T1 construct: in a rat striatal homogenate preparation; from tissue; host or cells: rat striatum (homogenate)
T1 sequence (P23977 whole entry): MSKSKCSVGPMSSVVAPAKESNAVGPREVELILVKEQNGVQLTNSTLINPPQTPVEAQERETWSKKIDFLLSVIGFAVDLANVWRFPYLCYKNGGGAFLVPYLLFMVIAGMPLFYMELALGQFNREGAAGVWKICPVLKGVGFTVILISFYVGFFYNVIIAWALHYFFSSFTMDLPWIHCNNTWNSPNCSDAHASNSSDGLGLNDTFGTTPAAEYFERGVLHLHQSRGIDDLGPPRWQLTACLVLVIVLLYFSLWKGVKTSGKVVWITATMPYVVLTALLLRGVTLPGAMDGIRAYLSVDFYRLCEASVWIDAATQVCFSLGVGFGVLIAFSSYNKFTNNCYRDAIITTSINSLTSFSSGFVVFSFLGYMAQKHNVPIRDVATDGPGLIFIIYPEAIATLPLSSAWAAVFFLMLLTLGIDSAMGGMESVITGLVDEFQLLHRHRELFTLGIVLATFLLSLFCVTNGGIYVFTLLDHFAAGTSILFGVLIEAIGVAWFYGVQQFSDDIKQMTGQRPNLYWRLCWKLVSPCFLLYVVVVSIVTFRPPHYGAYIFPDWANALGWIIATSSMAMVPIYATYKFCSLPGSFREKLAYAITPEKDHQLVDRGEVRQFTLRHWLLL
Protocol: as §1

Compound `CC(C[18F])OC(=O)[C@H]1[C@@H](c2ccc(I)cc2)C[C@@H]2CC[C@H]1N2C` (stereo partly drawn) [[^18 F] FIPIT 8, Fluorine-18 labeled2β-carbo-1'-fluoroisopropoxy-3β-(4-iodophenyl)tropane] has a tissue uptake at 2 min ([1]; blood, 2 min, read-out: Blood, Mean % Injected Dose/Gram) of 0.14 %ID/g, a tissue uptake at 0.5 h ([1]; blood, 30 min, read-out: Blood, Mean % Injected Dose/Gram) of 0.03 %ID/g and a tissue uptake at 1 h ([1]; blood, 60 min, read-out: Blood, Mean % Injected Dose/Gram) of 0.03 %ID/g. For the same compound, the tissue uptake at 2 h ([1]; blood, 120 min, read-out: Blood, Mean % Injected Dose/Gram) was 0.04 %ID/g, the tissue uptake at 2 min ([1]; bone, 2 min, read-out: Bone, Mean % Injected Dose/Gram) was 0.28 %ID/g and the tissue uptake at 0.5 h ([1]; bone, 30 min, read-out: Bone, Mean % Injected Dose/Gram) was 0.21 %ID/g. The tissue uptake at 1 h ([1]; bone, 60 min, read-out: Bone, Mean % Injected Dose/Gram) was 0.17 %ID/g, the tissue uptake at 2 h ([1]; bone, 120 min, read-out: Bone, Mean % Injected Dose/Gram) was 0.25 %ID/g and the tissue uptake at 2 min ([1]; brain, 2 min, read-out: Brain (B), Mean % Injected Dose/Gram) was 0.83 %ID/g. It also gave a tissue uptake at 0.5 h ([1]; brain, 30 min, read-out: Brain (B), Mean % Injected Dose/Gram) of 0.53 %ID/g, a tissue uptake at 1 h ([1]; brain, 60 min, read-out: Brain (B), Mean % Injected Dose/Gram) of 0.31 %ID/g and a tissue uptake at 2 h ([1]; brain, 120 min, read-out: Brain (B), Mean % Injected Dose/Gram) of 0.28 %ID/g. It also gave a tissue uptake at 2 min ([1]; cerebellum, 2 min, read-out: Cerebell (C), Mean % Injected Dose/Gram) of 0.76 %ID/g, a tissue uptake at 0.5 h ([1]; cerebellum, 30 min, read-out: Cerebell (C), Mean % Injected Dose/Gram) of 0.3 %ID/g and a tissue uptake at 1 h ([1]; cerebellum, 60 min, read-out: Cerebell (C), Mean % Injected Dose/Gram) of 0.16 %ID/g. It also gave a tissue uptake at 2 h ([1]; cerebellum, 120 min, read-out: Cerebell (C), Mean % Injected Dose/Gram) of 0.14 %ID/g, a tissue uptake at 2 min ([1]; cortex, 2 min, read-out: Cortex (Cx), Mean % Injected Dose/Gram) of 0.98 %ID/g and a tissue uptake at 0.5 h ([1]; cortex, 30 min, read-out: Cortex (Cx), Mean % Injected Dose/Gram) of 0.53 %ID/g. It also gave a tissue uptake at 1 h ([1]; cortex, 60 min, read-out: Cortex (Cx), Mean % Injected Dose/Gram) of 0.28 %ID/g, a tissue uptake at 2 h ([1]; cortex, 120 min, read-out: Cortex (Cx), Mean % Injected Dose/Gram) of 0.26 %ID/g and a tissue uptake at 2 min ([1]; heart, 2 min, read-out: Heart, Mean % Injected Dose/Gram) of 1.7 %ID/g. For the same compound, the tissue uptake at 0.5 h ([1]; heart, 30 min, read-out: Heart, Mean % Injected Dose/Gram) was 0.14 %ID/g, the tissue uptake at 1 h ([1]; heart, 60 min, read-out: Heart, Mean % Injected Dose/Gram) was 0.1 %ID/g and the tissue uptake at 2 h ([1]; heart, 120 min, read-out: Heart, Mean % Injected Dose/Gram) was 0.12 %ID/g. The tissue uptake at 2 min ([1]; kidney, 2 min, read-out: Kidney, Mean % Injected Dose/Gram) was 2.61 %ID/g, the tissue uptake at 0.5 h ([1]; kidney, 30 min, read-out: Kidney, Mean % Injected Dose/Gram) was 0.85 %ID/g and the tissue uptake at 1 h ([1]; kidney, 60 min, read-out: Kidney, Mean % Injected Dose/Gram) was 0.44 %ID/g. For the same compound, the tissue uptake at 2 h ([1]; kidney, 120 min, read-out: Kidney, Mean % Injected Dose/Gram) was 0.3 %ID/g, the tissue uptake at 2 min ([1]; liver, 2 min, read-out: Liver, Mean % Injected Dose/Gram) was 1.5 %ID/g and the tissue uptake at 0.5 h ([1]; liver, 30 min, read-out: Liver, Mean % Injected Dose/Gram) was 3.89 %ID/g. It also gave a tissue uptake at 1 h ([1]; liver, 60 min, read-out: Liver, Mean % Injected Dose/Gram) of 5.2 %ID/g, a tissue uptake at 2 h ([1]; liver, 120 min, read-out: Liver, Mean % Injected Dose/Gram) of 4.46 %ID/g and a tissue uptake at 2 min ([1]; lung, 2 min, read-out: Lung, Mean % Injected Dose/Gram) of 6.21 %ID/g. For the same compound, the tissue uptake at 0.5 h ([1]; lung, 30 min, read-out: Lung, Mean % Injected Dose/Gram) was 0.61 %ID/g, the tissue uptake at 1 h ([1]; lung, 60 min, read-out: Lung, Mean % Injected Dose/Gram) was 0.4 %ID/g and the tissue uptake at 2 h ([1]; lung, 120 min, read-out: Lung, Mean % Injected Dose/Gram) was 0.46 %ID/g. The tissue uptake at 2 min ([1]; muscle, 2 min, read-out: Muscle, Mean % Injected Dose/Gram) was 0.12 %ID/g, the tissue uptake at 0.5 h ([1]; muscle, 30 min, read-out: Muscle, Mean % Injected Dose/Gram) was 0.13 %ID/g and the tissue uptake at 1 h ([1]; muscle, 60 min, read-out: Muscle, Mean % Injected Dose/Gram) was 0.04 %ID/g. The tissue uptake at 2 h ([1]; muscle, 120 min, read-out: Muscle, Mean % Injected Dose/Gram) was 0.08 %ID/g, the “washout from brain regions other than striatum” value [1] was “rapid washout in all other brain regions” and the “Bone, Mean % Injected Dose/Gram” value ([1]; 2 min) was 0.28 % Injected Dose/Gram. For the same compound, the “Cerebell (C), Mean % Injected Dose/Gram” value ([1]; 2 min) was 0.76 % Injected Dose/Gram, the “Cortex (Cx), Mean % Injected Dose/Gram” value ([1]; 2 min) was 0.98 % Injected Dose/Gram and the “St/C (striatum to cerebellum ratio)” value ([1]; 2 min) was 1.12. For the same compound, the “St/Cx (striatum to cortex ratio)” value ([1]; 2 min) was 0.86, the “Striatum (St), Mean % Injected Dose/Gram” value ([1]; 2 min) was 0.84 % Injected Dose/Gram and the “in vivo defluorination (from bone radioactivity)” value ([1]; 2 min to 120 min) was “stability of the 2β-fluoroisopropyl group to significant in vivo defluorination”. The “St/C (striatum to cerebellum ratio)” value ([1]; 30 min) was 2.42, the “St/Cx (striatum to cortex ratio)” value ([1]; 30 min) was 1.38 and the “St/C (striatum to cerebellum ratio)” value ([1]; 60 min) was 3.63. The “St/Cx (striatum to cortex ratio)” value ([1]; 60 min) was 2.13, the “Bone, Mean % Injected Dose/Gram” value ([1]; 120 min) was 0.25 % Injected Dose/Gram and the “Cerebell (C), Mean % Injected Dose/Gram” value ([1]; 120 min) was 0.14 % Injected Dose/Gram. The “Cortex (Cx), Mean % Injected Dose/Gram” value ([1]; 120 min) was 0.26 % Injected Dose/Gram, the “St/C (striatum to cerebellum ratio)” value ([1]; 120 min) was 3.71 and the “St/Cx (striatum to cortex ratio)” value ([1]; 120 min) was 2.0. The “Striatum (St), Mean % Injected Dose/Gram” value ([1]; 120 min) was 0.50 % Injected Dose/Gram, the “St/Cx (striatum to cortex ratio)” value ([1]; 120 min, listed as [^18 F] FIPIT (8)) was 2.00 and the tissue uptake at 2 min ([1]; spleen, 2 min, read-out: Spleen, Mean % Injected Dose/Gram) was 1.58 %ID/g. It also gave a tissue uptake at 0.5 h ([1]; spleen, 30 min, read-out: Spleen, Mean % Injected Dose/Gram) of 0.64 %ID/g, a tissue uptake at 1 h ([1]; spleen, 60 min, read-out: Spleen, Mean % Injected Dose/Gram) of 0.4 %ID/g and a tissue uptake at 2 h ([1]; spleen, 120 min, read-out: Spleen, Mean % Injected Dose/Gram) of 0.38 %ID/g. For the same compound, the tissue uptake at 2 min ([1]; striatum, 2 min, read-out: Striatum (St), Mean % Injected Dose/Gram) was 0.84 %ID/g, the tissue uptake at 0.5 h ([1]; striatum, 30 min, read-out: Striatum (St), Mean % Injected Dose/Gram) was 0.73 %ID/g and the tissue uptake at 1 h ([1]; striatum, 60 min, read-out: Striatum (St), Mean % Injected Dose/Gram) was 0.58 %ID/g. It also gave a tissue uptake at 2 h ([1]; striatum, 120 min, read-out: Striatum (St), Mean % Injected Dose/Gram) of 0.5 %ID/g, a tissue uptake at 2 min ([1]; testis, 2 min, read-out: Testis, Mean % Injected Dose/Gram) of 0.14 %ID/g and a tissue uptake at 0.5 h ([1]; testis, 30 min, read-out: Testis, Mean % Injected Dose/Gram) of 0.68 %ID/g. For the same compound, the tissue uptake at 1 h ([1]; testis, 60 min, read-out: Testis, Mean % Injected Dose/Gram) was 0.17 %ID/g, the tissue uptake at 2 h ([1]; testis, 120 min, read-out: Testis, Mean % Injected Dose/Gram) was 0.19 %ID/g and the “brain region of highest uptake (basal ganglia/striatum)” value [2] was “region of highest uptake in the brain”. The “retention in basal ganglia (striatum)” value ([2]; 190 min following injection) was “prolonged retention with clear visualization at 190 min” and the “striatal to cerebellum ratio (region of interest measurements)” value ([2]; 190 min post administration) was 3.0.

`CC(CF)OC(=O)[C@H]1[C@@H](c2ccc(I)cc2)C[C@@H]2CC[C@H]1N2C` (stereo partly drawn) [FIPIT 8] gave a Ki (dopamine transporter) of 1.13 nM.
